The source of these data is patent US10626368B2, “Method for inducing cerebral cortex neurons” (KYOTO UNIVERSITY, priority 2015, dated 2020).

For experiment [1], the system named is ES cells or the iPS cells. Put plainly: Sphere formation and Pax6 immunostaining after 18 days of suspension culture. It is filed as cell-based, human. Here is the method: On the day before induction of differentiation, in order to separate the ES cells or the iPS cells, which had been cultured in a culture medium to which 10 μM Y-27632 (WAKO) had been added, from the SNL feeder cells, the SNL cells were removed with CTK and the remaining cells were then dissociated using Accumax (ICT). The cells were transferred on a 96-well plate (Lipidure-coat 96-well plate (NOF Corporation)) in an amount of 9×10^3 cells per well. Thereafter, the cells were subjected to a suspension culture in DMEM/F12 (WAKO) comprising 50 μM Y-27632 (WAKO), 10 μM SB43152 (Sigma), 10 ng/ml bFGF (Invitrogen), various types of Wnt inhibitors (DKK1 (R & D, 500 ng/ml), C59 (Cellagen Technology, 2-10 nM), XAV (Stemgent, 500 nM-2 μM) or IWP4 (Stemgent, 500 nM-2.5 μM)), LDN193189 (Stemgent), KSR (Invitrogen), 0.1 mM MEM non-essential amino acid (Invitrogen), 0.1 mM 2-mercaptoethanol (WAKO), and 2 mM L-Gln (Invitrogen) (initiation of differentiation induction, day 0). […] Furthermore, the expression levels of the Foxg1, Lhx2, Emx2 and CoupTF1 genes in the obtained spheres were measured according to a qPCR method (FIG. 4B). […]

Experiment [2] has as its system ES cells or the iPS cells. Kind of experiment: qPCR of marker gene expression in cells differentiated with added inhibitors. Conditions: 10 nM C59, spheres, qPCR. It is filed as cell-based, human. From the text: Human ES cells (KhES-1) were obtained from Institute for Frontier Medical Sciences, Kyoto University (Suemori H, et al. Biochem Biophys Res Commun. 345: 926-32, 2006). The human iPS cells 404C2 are cells obtained by introducing Oct3/4, Sox2, Klf4, L-MYC, LIN28 and p53shRNA into human fibroblasts, using an episomal vector, and these cells were obtained from Professor Yamanaka et al. in Kyoto University (Okita, et al, Nat Methods. 8: 409-412, 2011). The human iPS cells 836B1 are cells obtained by introducing Oct3/4, Sox2, Klf4, L-MYC, LIN28, GLIS1 and p53shRNA into human fibroblasts, using an episomal vector, and these cells were obtained from Professor Yamanaka et al. in Kyoto University. The ES cells and the iPS cells were cultured on SNL cells (Takahashi K, et al, Cell. 131: 861-872, 2007).
On the day before induction of differentiation, in order to separate the ES cells or the iPS cells, which had been cultured in a culture medium to which 10 μM Y-27632 (WAKO) had been added, from the SNL feeder cells, the SNL cells were removed with CTK and the remaining cells were then dissociated using Accumax (ICT). The cells were transferred on a 96-well plate (Lipidure-coat 96-well plate (NOF Corporation)) in an amount of 9×10^3 cells per well. Thereafter, the cells were subjected to a suspension culture in DMEM/F12 (WAKO) comprising 50 μM Y-27632 (WAKO), 10 μM SB43152 (Sigma), 10 ng/ml bFGF (Invitrogen), various types of Wnt inhibitors (DKK1 (R & D, 500 ng/ml), C59 (Cellagen Technology, 2-10 nM), XAV (Stemgent, 500 nM-2 μM) or IWP4 (Stemgent, 500 nM-2.5 μM)), LDN193189 (Stemgent), KSR (Invitrogen), 0.1 mM MEM non-essential amino acid (Invitrogen), 0.1 mM 2-mercaptoethanol (WAKO), and 2 mM L-Gln (Invitrogen) (initiation of differentiation induction, day 0). […] Three days later, the medium was exchanged with DMEM/F12 (WAKO) comprising various types of Wnt inhibitors (DKK1, C59, XAV or IWP4 (Stemgent)), LDN193189 (Stemgent), KSR (Invitrogen), 0.1 mM MEM non-essential amino acid (Invitrogen), 0.1 mM 2-mercaptoethanol (WAKO), and 2 mM L-Gln (Invitrogen) (day 6). Thereafter, the medium was exchanged with a fresh one of the same type every 3 days, and the culture was carried out for 18 days after the initiation of differentiation induction (day 18).
The obtained cell mass was transferred on a dish (24-well plate (BD)) coated with 50 μg/ml ornithine (Sigma), 5 μg/ml laminin (Sigma) and 5 μg/ml fibronectin (BD Bioscience Pharmingen), and the culture was continued in Neurobasal (Invitrogen), to which B27 (Invitrogen), 2 mM L-Gln, and 10 units/ml penicillin and streptomycin (Invitrogen) had been added. The culture was carried out for, at maximum, 46 days after the initiation of differentiation induction. It is to be noted that the medium was exchanged with a fresh one every 2 or 3 days.
In the above-described induction method, 500 ng/ml DKK1, 2 nM C59, 500 nM XAV or 500 nM IWP4 was added as a Wnt inhibitor to the cells, and the obtained mixture was then cultured for 18 days. Thereafter, the expression levels of Six3 (forebrain marker), Sox1 (neuroectodermal marker), Foxg1 (cerebral cortex-forming factor), Lhx2 (cerebral cortex-forming factor), Emx2 (forebrain back portion marker), CoupTF1 (forebrain back portion marker) and Pax6 (forebrain front portion marker) genes in the cultured cells were measured by a qPCR method (FIG. 2).
The concentration of C59 used as a Wnt inhibitor in the above-described induction method was examined. Specifically, without using C59, or using 2.5 nM, 10 nM and 1 μM C59, the cells were cultured for 18 days. […] The obtained spheres were subjected to immunostaining of using an antibody against Pax6. […] Furthermore, the expression levels of the Foxg1, Lhx2, Emx2 and CoupTF1 genes in the obtained spheres were measured according to a qPCR method (FIG. 4B). As a result, the expression level of CoupTF1 was low and the expression levels of Lhx2 and Foxg1 were high in the case of using 10 nM C59. […]
On the technique in general: In qPCR the cycle at which signal appears reflects the starting amount.

As to `Cc1cc(-c2ccc(CC(=O)Nc3ccc(-c4cccnc4)cc3)cc2)ccn1` [C59], the “sphere formation in the suspension culture” value in experiment [1] (1 μM C59, 18 days) is “no spheres were formed”. For the same molecule, the “Pax6-positive cells in spheres (immunostaining)” value in experiment [1] (without C59, 2.5 nM and 10 nM C59, 18 days) was “positive cells were confirmed under all conditions”. In experiment [2], the “expression level of CoupTF1” value is “low”, the “expression level of Foxg1” value is reported as “high” and the “expression level of Lhx2” value is recorded as “high”.
